Read-outs that look alike come from different tables or passages of the source.
Experiments:
[1] = system: biofilm derived S. aureus clinical strains (UAMS-1, 103-700); test: Biofilm susceptibility, Calgary Biofilm device (MBEC plates): MBIC and viable CFU; assay type: cell-based, Staphylococcus aureus; conditions: for Biofilm (MBIC) 103-700: S. aureus 103-700 48 h biofilm; for Biofilm (MBIC) 103-700 / Biofilm (MBIC) UAMS-1: 24 h challenge, * = with 5 mM D-AA; for Biofilm (MBIC) UAMS-1: S. aureus UAMS-1 48 h biofilm; for % Decrease + SD in CFU, 8 μg/mL / % Decrease + SD in CFU, 16 μg/mL / % Decrease + SD in CFU, 32 μg/mL / % Decrease + SD in CFU, 64 μg/mL: S. aureus UAMS-1 biofilm; for % Decrease + SD in CFU, 8 μg/mL: antibiotic 8 μg/mL; for % Decrease + SD in CFU, 16 μg/mL: antibiotic 16 μg/mL; for % Decrease + SD in CFU, 32 μg/mL: antibiotic 32 μg/mL; for % Decrease + SD in CFU, 64 μg/mL: antibiotic 64 μg/mL, vs non-treated biofilms; for effect of the antimicrobial against biofilms when combined with the D-AA mixture: S. aureus biofilms, both strains, bacterial CFUs within biofilms
Protocol: Biofilm susceptibility to antimicrobial agents in the presence and absence of D-AA was determined using the Calgary Biofilm device. Briefly, biofilms from overnight cultures were established as above on individual pegs of the minimum biofilm eradication concentration (MBEC) plates (Innovotech, Canada) with agitation for 48 h at 37° C. Following incubation, the lid with pegs was removed from the incubation plate, washed by re-suspending pegs into plate with wells containing 200 μl of 1×PBS, then placed into a 96-well challenge plate containing pre-diluted antibiotics with or without an […] for an additional 24 h at 37° C. Following challenge plates were washed, and the attached viable cells on PEGs within the biofilm were determined by plating serial dilutions onto blood agar plates (Remel). Corresponding minimal biofilm inhibitory concentration (MBIC) was also determined by measuring the optical density in individual wells of the challenge plate at 600 nm. The lowest concentration of antibiotic for which an optical density of <0.100 was recorded as the MBIC. For each antibiotic, the MBIC was determined in the presence or absence of a mixture of D-AA (D-Phenylalanine, D-Methionine, and D-Tryptophan) at an equimolar concentration of 5 mM. Three independent experiments were performed for each of these assays, with a minimum of 3 replicates.

[2] = system: planktonic S. aureus clinical strains (UAMS-1, 103-700); test: MIC by CLSI broth microdilution, planktonic bacteria; assay type: cell-based, Staphylococcus aureus; conditions: for MIC: Staphylococcus aureus, 18 h
Protocol: Overnight cultures of bacterial strains were diluted to a final concentration of 5×10^5 CFU/ml in MHB-II. The resulting bacterial suspension was aliquoted (100 μL) into polystyrene round-bottom 96-well plates containing 100 μL of a 2× concentration of a previously serially diluted (1:2) antibiotic. Each antimicrobial tested was serially diluted 10 times. Following the addition of bacteria, the microtiter plate was covered and was incubated under stationary conditions at 37° C. in the presence of 1× antibiotics. […] MICs of antibiotics were determined in triplicate according to the Clinical and Laboratory Standards Institute (CLSI) broth microdilution as described by the performance standards for antimicrobial susceptibility testing (M100-S22, January 2012).

[3] = system: S. aureus clinical isolates biofilms; test: Biofilm dispersal and prevention, crystal violet assay (Example 3); assay type: cell-based; conditions: for dispersal of established biofilms (biofilm biomass): panel of clinical isolates of methicillin-resistant S. aureus (n=5), 5 mM, 24 h, FIGS. 8A, 8C; for biofilm dispersal in pre-screening of eight individual D-AAs: pre-formed biofilms of four clinical isolates, 0.001-50 mM, FIG. 7
Protocol: Like in Example 1, biofilm formation was assessed under static conditions using polystyrene 96-well plates (Corning, Inc.). Overnight bacterial cultures were diluted to an OD600 of 0.1 in TSB (˜10^7 CFU/mL), and 20 μL were added to individual wells filled with 180 μL of media and incubated at 37° C. for 48 h. To assess the biofilm dispersal activity of D-AAs, the culture medium from biofilms was removed after 48 h and 200 μL fresh medium containing either an individual D-AA or an equimolar mixture of D-AAs (1:1:1: D-Met:D-Pro:D-Trp) were added at the indicated concentrations. After treatment with D-AA(s) for 24 h, plates were gently washed with 1× phosphate buffered saline (PBS) to remove unattached cells, stained with 0.1% (w/v) crystal violet (Sigma Aldrich) for 10 min, rinsed with PBS, and then solubilized with 80% (v/v) ethanol. Biofilm biomass was determined by measuring the absorbance of solubilized stain at 570 nm using a microtiter plate reader. For assays measuring the ability of D-AA to block biofilm formation, cells were grown under biofilm conditions as above in the presence of media containing D-AAs. Representative images of the plates of CV-stained biofilms following treatment with D-AA prior to solubilization were taken using a digital camera. All assays were repeated in triplicate with a minimum of four technical replicates.

[4] = system: P. aeruginosa clinical isolate biofilms; test: Biofilm dispersal and prevention, crystal violet 96-well assay (Example 1); assay type: cell-based, Pseudomonas aeruginosa; conditions: 5 mM; for biofilm dispersal against panel of clinical isolates (biofilm biomass OD570): P. aeruginosa clinical isolates, FIGS. 3A, 3C; for biofilm dispersal in pre-screening of eight D-AAs: pre-formed P. aeruginosa biofilms, FIG. 1
Protocol: (§1) Biofilm formation was performed under static conditions in polystyrene 96-well plates (Corning, Inc., Corning, N.Y.). Briefly, overnight bacterial cultures were diluted to an OD600 of 0.1 in CA-MHB and 10 μL was added to individual wells filled with 190 μl of media and incubated at 37° C. for 48 h without shaking for biofilm growth. Following incubation, culture media was removed and 200 μL media containing individual D-AA at concentrations of 5 mM-1 nM was added. Plates were incubated for an additional 24 h at 37° C. After treatment, plates were gently washed with 1× phosphate buffered saline (PBS; pH 7.4) to remove non-adherent bacteria. Biofilms (i.e. attached cells) were then stained with 0.1% (w/v) crystal violet for 10 min, washed, followed by solubilization of crystal violet with 33% (v/v) acetic acid for 10 min. Biofilm biomass was determined by measuring the absorbance at 570 nm using a microtiter plate reader. For assays measuring the ability of D-AA to block biofilm formation, cells were grown under biofilm conditions as above in the presence of media containing D-AA. Three independent experiments with a minimum of 4 replicates were performed for each experimental assay. Representative images of the plates of CV stained biofilms following treatment with D-AA, prior to solubilization, were taken using a digital camera.

[5] = system: S. aureus clinical isolate biofilms; test: as above; assay type: cell-based, Staphylococcus aureus; conditions: 5 mM; for biofilm dispersal against panel of clinical isolates (biofilm biomass OD570): S. aureus clinical isolates, FIGS. 3A, 3C; for biofilm dispersal in pre-screening of eight D-AAs: pre-formed S. aureus biofilms, FIG. 1
Protocol: as §1

[6] = Release of D-AAs from PUR scaffolds in PBS (HPLC); assay type: physicochemical
Protocol: Also, kinetic release assays were performed on the PUR scaffolds by incorporating 10 wt % of a 1:1:1 mixture of D-Tr:D-Pro:D-Met incubated in PBS for up to 8 weeks. The medium was be sampled twice weekly and analyzed for D-AAs by HPLC.
PUR scaffolds incorporating 10 wt % of a 1:1:1 mixture of D-Met:D-Pro:D-Trp were incubated in PBS at 37° C. under static conditions for up to 8 weeks. This mixture was evaluated in vitro, in vivo and in the release kinetics tests to account for potential interactions between D-AAs during release. The medium was sampled on days 1, 2, 4, 7, 10, 14, 21, and 28 and analyzed for D-AAs by HPLC using a system equipped with a Waters 1525 binary pump and a 2487 Dual-Absorbance Detector at 200 nm. Samples of released D-AAs were eluted through an Atlantis HILIC Silica column (5 μm particle size, 4.6 mm diameter×250 mm length) using an isocratic mobile phase flowing at 1 mL/min. The mobile phase contained 2.5 mM potassium dihydrogen phosphate with pH=2.85 (A) and Acetonitrile (B) at a ratio of A25:B75. The column oven temperature was maintained at 30° C. Sample concentration was determined in reference to an external standard curve using the Waters Breeze system. Standard curves were prepared in the following concentration ranges: (1) 7.8 μg/mL to 1 mg/mL for D-Met and D-Pro and (2) […] to 100 μg/mL for D-Trp.

[7] = S. aureus 103-700, agents marked * in combination with equimolar 5 mM D-AA, read-out: Planktonic (MIC) 103-700
[8] = S. aureus UAMS-1, agents marked * in combination with equimolar 5 mM D-Phenylalanine, D-Tryptophan, D-Methionine, read-out: Planktonic (MIC) UAMS-1
[9] = S. aureus 103-700, agents marked * in combination with equimolar 5 mM D-AA

Row | Compound | Biofilm (MBIC) 103-700 [1] [µg/mL] | Biofilm (MBIC) UAMS-1 [1] [µg/mL] | MIC [2, 7] [µg/mL] | MIC [2, 8] [µg/mL] | % Decrease + SD in CFU, 8 μg/mL [1] [%] | % Decrease + SD in CFU, 16 μg/mL [1] [%] | % Decrease + SD in CFU, 32 μg/mL [1] [%] | % Decrease + SD in CFU, 64 μg/mL [1] [%] | dispersal of established biofilms (biofilm biomass) [3] | biofilm dispersal in pre-screening of eight individual D-AAs [3] | biofilm dispersal against panel of clinical isolates (biofilm biomass OD570) [4] | biofilm dispersal in pre-screening of eight D-AAs [4] | biofilm dispersal against panel of clinical isolates (biofilm biomass OD570) [5] | biofilm dispersal in pre-screening of eight D-AAs [5] | cumulative release by day 28 ([6]; PUR scaffold with 10 wt % D-AA mixture, PBS 37° C.) [%] | burst release ([6]; day 1, PUR scaffold with 10 wt % 1:1:1 D-Met:D-Pro:D-Trp, PBS 37° C.) [%] | b parameter of Weibull model ([6]; fit of D-AA release data) | Planktonic (MIC) 103-700 [2, 9] [µg/mL] | effect of the antimicrobial against biofilms when combined with the D-AA mixture [1] | Planktonic (MIC) UAMS-1 ([2]; S. aureus UAMS-1, agents marked * in combination with equimolar 5 mM D-Phenylalanine, D-Tryptophan, D-Methionine) [µg/mL]
1 | Cc1nnc(SCC2=C(C(=O)O)N3C(=O)[C@@H](NC(=O)Cn4cnnn4)[C@H]3SC2)s1 [CFZ, Cefazolin] | >128 | >128 | 16 | 0.5 | – | – | – | – | – | – | – | – | – | – | – | – | – | – | – | –
2 | CCC[C@@H]1C[C@@H](C(=O)N[C@@H]([C@H]2O[C@H](SC)[C@H](O)[C@@H](O)[C@H]2O)[C@H](C)Cl)N(C)C1 [CLI, Clindamycin] | >64 | 64 | 0.5 | 0.5 | 1.8 ± 1.0 | 9.3 ± 1.8 | 32.86 ± 4.3 | 66.0 ± 3.4 | – | – | – | – | – | – | – | – | – | – | – | –
3 | N[C@H](Cc1ccccc1)C(=O)O [D-Phe, D-phenylalanine] | – | – | – | – | – | – | – | – | effective at dispersing established biofilms | effective at dispersing biofilms | capable of significantly dispersing biofilm formation | relatively more effective at dispersing biofilms | capable of significantly dispersing biofilm formation | relatively more effective at dispersing biofilms | – | – | – | – | – | –
4 | O=C(O)[C@H]1CCCN1 [D-Pro, D-proline] | – | – | – | – | – | – | – | – | effective at dispersing established biofilms | effective at dispersing biofilms | capable of significantly dispersing biofilm formation | relatively more effective at dispersing biofilms | capable of significantly dispersing biofilm formation | relatively more effective at dispersing biofilms | 85 | 45 | 0.35 | – | – | –
5 | Cc1onc(-c2ccccc2)c1C(=O)N[C@@H]1C(=O)N2[C@@H]1SC(C)(C)[C@@H]2C(=O)O [OXA, Oxacillin] | >64 | >64 | 8 | 1 | – | – | – | – | – | – | – | – | – | – | – | – | – | 8 | – | –
6 | CO[C@H]1/C=C/O[C@@]2(C)Oc3c(C)c(O)c4c(O)c(c(/C=N/N5CCN(C)CC5)c(O)c4c3C2=O)NC(=O)/C(C)=C\C=C\[C@H](C)[C@H](O)[C@@H](C)[C@@H](O)[C@@H](C)[C@H](OC(C)=O)[C@@H]1C [RIF, Rifampin] | 32 | 32 | 0.5 | 0.5 | 16.87 ± 2.9 | 34.31 ± 5.4 | 70.70 ± 4.3 | 67.36 ± 1.2 | – | – | – | – | – | – | – | – | – | – | enhanced the effect | –
7 | CN[C@H](CC(C)C)C(=O)N[C@H]1C(=O)N[C@@H](CC(N)=O)C(=O)N[C@H]2C(=O)N[C@H]3C(=O)N[C@H](C(=O)N[C@H](C(=O)O)c4cc(O)cc(O)c4-c4cc3ccc4O)[C@H](O)c3ccc(c(Cl)c3)Oc3cc2cc(c3O[C@@H]2O[C@H](CO)[C@@H](O)[C@H](O)[C@H]2O[C@H]2C[C@](C)(N)[C@H](O)[C@H](C)O2)Oc2ccc(cc2Cl)[C@H]1O [VAN, Vancomycin] | >64 | >64 | – | – | 1.5 ± 5.7 | 15.93 ± 6.2 | 31.90 ± 7.1 | 65.97 ± 5.3 | – | – | – | – | – | – | – | – | – | 1 | enhanced the effect | 0.5

Source: patent publication US20150182667A1, “Composition with Biofilm Dispersal Agents” (Vanderbilt University, priority 2012, published 2015)
